Experiments:
Assay in all cases: relative viability (nuclei count vs DMSO), 5 days (fraction); higher = more cells survive
201T = test system: 201T
Procedure, shortened: (§1)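 One day after seeding in 1536-well plates, lung cancer cell lines were dosed by pin tool. Dosing was either single-drug or a fixed anchor-drug dose plus five library-drug doses (not always all listed) in √10 steps. After 5 days, nuclei were stained in one fix-and-stain step and counted on 4× images, and relative viability is the nuclei count of treated wells over that of vehicle wells, given as the median of duplicate plates.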

BEN = test system: BEN
Procedure, shortened: as §1

CAL-12T = test system: CAL-12T
Procedure, shortened: as §1

HCC-827 = test system: HCC-827
Procedure, shortened: as §1

LCLC-103H = test system: LCLC-103H
Procedure, shortened: as §1

LCLC-97TM1 = test system: LCLC-97TM1
Procedure, shortened: as §1

LXF-289 = test system: LXF-289
Procedure, shortened: as §1

NCI-H1395 = test system: NCI-H1395
Procedure, shortened: as §1

NCI-H1437 = test system: NCI-H1437
Procedure, shortened: as §1

NCI-H1650 = test system: NCI-H1650
Procedure, shortened: as §1

NCI-H1792 = test system: NCI-H1792
Procedure, shortened: as §1

NCI-H1793 = test system: NCI-H1793
Procedure, shortened: as §1

NCI-H1944 = test system: NCI-H1944
Procedure, shortened: as §1

NCI-H2087 = test system: NCI-H2087
Procedure, shortened: as §1

NCI-H2228 = test system: NCI-H2228
Procedure, shortened: as §1

NCI-H2405 = test system: NCI-H2405
Procedure, shortened: as §1

NCI-H3122 = test system: NCI-H3122
Procedure, shortened: as §1

NCI-H322M = test system: NCI-H322M
Procedure, shortened: as §1

NCI-H647 = test system: NCI-H647
Procedure, shortened: as §1

NCI-H727 = test system: NCI-H727
Procedure, shortened: as §1

RERF-LC-KJ = test system: RERF-LC-KJ
Procedure, shortened: as §1

SK-LU-1 = test system: SK-LU-1
Procedure, shortened: as §1

O=c1cc(N2CCOCC2)oc2c(-c3cccc4c3sc3ccccc34)cccc12 + N=C(N)NC(=N)NCCc1ccccc1 [Phenformin] (partner 250 µM)
relative viability (201T; first compound 0.01 µM): 0.289 | relative viability (201T; first compound 0.03162 µM): 0.488 | relative viability (201T; first compound 0.1 µM): 0.469 | relative viability (201T; first compound 0.3162 µM): 0.441 | relative viability (201T; first compound 1 µM): 0.43 | relative viability (BEN; first compound 0.01 µM): 0.241 | relative viability (BEN; first compound 0.03162 µM): 0.305 | relative viability (BEN; first compound 0.1 µM): 0.27 | relative viability (BEN; first compound 0.3162 µM): 0.271 | relative viability (BEN; first compound 1 µM): 0.292 | relative viability (CAL-12T; first compound 0.01 µM): 0.519 | relative viability (CAL-12T; first compound 0.03162 µM): 0.629 | relative viability (CAL-12T; first compound 0.1 µM): 0.607 | relative viability (CAL-12T; first compound 0.3162 µM): 0.575 | relative viability (CAL-12T; first compound 1 µM): 0.547 | relative viability (HCC-827; first compound 0.01 µM): 0.368 | relative viability (HCC-827; first compound 0.03162 µM): 0.391 | relative viability (HCC-827; first compound 0.1 µM): 0.396 | relative viability (HCC-827; first compound 0.3162 µM): 0.405 | relative viability (HCC-827; first compound 1 µM): 0.402 | relative viability (LCLC-103H; first compound 0.01 µM): 0.317 | relative viability (LCLC-103H; first compound 0.03162 µM): 0.31 | relative viability (LCLC-103H; first compound 0.1 µM): 0.331 | relative viability (LCLC-103H; first compound 0.3162 µM): 0.377 | relative viability (LCLC-103H; first compound 1 µM): 0.341 | relative viability (LCLC-97TM1; first compound 0.01 µM): 0.43 | relative viability (LCLC-97TM1; first compound 0.03162 µM): 0.458 | relative viability (LCLC-97TM1; first compound 0.1 µM): 0.431 | relative viability (LCLC-97TM1; first compound 0.3162 µM): 0.378 | relative viability (LCLC-97TM1; first compound 1 µM): 0.449 | relative viability (LXF-289; first compound 0.01 µM): 0.523 | relative viability (LXF-289; first compound 0.03162 µM): 0.55 | relative viability (LXF-289; first compound 0.1 µM): 0.457 | relative viability (LXF-289; first compound 0.3162 µM): 0.498 | relative viability (LXF-289; first compound 1 µM): 0.529 | relative viability (NCI-H1395; first compound 0.01 µM): 0.435 | relative viability (NCI-H1395; first compound 0.03162 µM): 0.45 | relative viability (NCI-H1395; first compound 0.1 µM): 0.417 | relative viability (NCI-H1395; first compound 0.3162 µM): 0.461 | relative viability (NCI-H1395; first compound 1 µM): 0.447 | relative viability (NCI-H1437; first compound 0.01 µM): 0.32 | relative viability (NCI-H1437; first compound 0.03162 µM): 0.323 | relative viability (NCI-H1437; first compound 0.1 µM): 0.298 | relative viability (NCI-H1437; first compound 0.3162 µM): 0.338 | relative viability (NCI-H1437; first compound 1 µM): 0.282 | relative viability (NCI-H1650; first compound 0.01 µM): 0.352 | relative viability (NCI-H1650; first compound 0.03162 µM): 0.48 | relative viability (NCI-H1650; first compound 0.1 µM): 0.346 | relative viability (NCI-H1650; first compound 0.3162 µM): 0.449 | relative viability (NCI-H1650; first compound 1 µM): 0.362 | relative viability (NCI-H1792; first compound 0.01 µM): 0.26 | relative viability (NCI-H1792; first compound 0.03162 µM): 0.202 | relative viability (NCI-H1792; first compound 0.1 µM): 0.213 | relative viability (NCI-H1792; first compound 0.3162 µM): 0.32 | relative viability (NCI-H1792; first compound 1 µM): 0.184 | relative viability (NCI-H1793; first compound 0.01 µM): 0.386 | relative viability (NCI-H1793; first compound 0.1 µM): 0.345 | relative viability (NCI-H1793; first compound 0.3162 µM): 0.375 | relative viability (NCI-H1793; first compound 1 µM): 0.363 | relative viability (NCI-H1944; first compound 0.01 µM): 0.212 | relative viability (NCI-H1944; first compound 0.03162 µM): 0.208 | relative viability (NCI-H1944; first compound 0.1 µM): 0.213 | relative viability (NCI-H1944; first compound 0.3162 µM): 0.207 | relative viability (NCI-H1944; first compound 1 µM): 0.237 | relative viability (NCI-H2087; first compound 0.01 µM): 0.423 | relative viability (NCI-H2087; first compound 0.03162 µM): 0.535 | relative viability (NCI-H2087; first compound 0.1 µM): 0.45 | relative viability (NCI-H2087; first compound 0.3162 µM): 0.46 | relative viability (NCI-H2087; first compound 1 µM): 0.431 | relative viability (NCI-H2228; first compound 0.01 µM): 0.372 | relative viability (NCI-H2228; first compound 0.03162 µM): 0.391 | relative viability (NCI-H2228; first compound 0.1 µM): 0.262 | relative viability (NCI-H2228; first compound 0.3162 µM): 0.259 | relative viability (NCI-H2228; first compound 1 µM): 0.37 | relative viability (NCI-H2405; first compound 0.01 µM): 0.364 | relative viability (NCI-H2405; first compound 0.03162 µM): 0.38 | relative viability (NCI-H2405; first compound 0.1 µM): 0.356 | relative viability (NCI-H2405; first compound 0.3162 µM): 0.424 | relative viability (NCI-H2405; first compound 1 µM): 0.404 | relative viability (NCI-H3122; first compound 0.01 µM): 0.347 | relative viability (NCI-H3122; first compound 0.03162 µM): 0.374 | relative viability (NCI-H3122; first compound 0.1 µM): 0.38 | relative viability (NCI-H3122; first compound 0.3162 µM): 0.36 | relative viability (NCI-H3122; first compound 1 µM): 0.396 | relative viability (NCI-H322M; first compound 0.01 µM): 0.75 | relative viability (NCI-H322M; first compound 0.03162 µM): 0.781 | relative viability (NCI-H322M; first compound 0.1 µM): 0.395 | relative viability (NCI-H322M; first compound 0.3162 µM): 0.814 | relative viability (NCI-H322M; first compound 1 µM): 0.668 | relative viability (NCI-H647; first compound 0.01 µM): 0.547 | relative viability (NCI-H647; first compound 0.03162 µM): 0.643 | relative viability (NCI-H647; first compound 0.1 µM): 0.319 | relative viability (NCI-H647; first compound 0.3162 µM): 0.526 | relative viability (NCI-H647; first compound 1 µM): 0.715 | relative viability (NCI-H727; first compound 0.01 µM): 0.645 | relative viability (NCI-H727; first compound 0.03162 µM): 0.546 | relative viability (NCI-H727; first compound 0.1 µM): 0.475 | relative viability (NCI-H727; first compound 0.3162 µM): 0.641 | relative viability (NCI-H727; first compound 1 µM): 0.581 | relative viability (RERF-LC-KJ; first compound 0.01 µM): 0.429 | relative viability (RERF-LC-KJ; first compound 0.03162 µM): 0.413 | relative viability (RERF-LC-KJ; first compound 0.1 µM): 0.412 | relative viability (RERF-LC-KJ; first compound 0.3162 µM): 0.418 | relative viability (RERF-LC-KJ; first compound 1 µM): 0.427 | relative viability (SK-LU-1; first compound 0.01 µM): 0.573 | relative viability (SK-LU-1; first compound 0.03162 µM): 0.551 | relative viability (SK-LU-1; first compound 0.1 µM): 0.531 | relative viability (SK-LU-1; first compound 0.3162 µM): 0.509 | relative viability (SK-LU-1; first compound 1 µM): 0.45
